Experimental data reported in patent publication US20220218677A1, “ARYLQUINOZILINE DERIVATIVES AS ALPHA2-ADRENOCEPTOR SUBTYPE C (ALPHA-2C) ANTAGONISTS FOR THE TREATMENT OF SLEEP APNEA” (Bayer Aktiengesellschaft, priority 2019, published 2022).

System: upper airway collapsibility in anaesthetized, spontaneously breathing pigs
Experiment: pig model of obstructive sleep apnea (OSA): upper airway collapsibility under negative pressure
Format: in vivo, German Landrace pigs
Conditions: for Percent pigs without collaps −50 cm H2O / Percent pigs without collaps −100 cm H2O / Percent pigs without collaps −150 cm H2O: i.v. bolus 0.3 mg/kg then i.v. infusion 0.1 mg/kg/h
Source text: The therapeutic potential of the compounds of formula (I) according to the present invention in sleep apnea has been assessed preclinically in a pig model of obstructive sleep apnea (OSA).
Using negative pressure, it is possible to induce collapse and thus obstruction of the upper respiratory tract in anaesthetized, spontaneously breathing pigs (Wirth K. J. et al., Sleep 36(5) (2013) pp. 699-708).
German Landrace pigs are used for the model. The pigs are anaesthetized and tracheotomized. Two tracheal are inserted into the trachea, one into the rostral part and the other into the caudal part of the trachea. Using a connection piece, the rostral cannula is connected to a tube to the negative pressure device and to the distal tracheal cannula. The distal tracheal cannula is additionally connected to a tube with an open end to atmosphere via a connection piece that served for free tracheal breathing, circumventing the upper airway. By appropriate opening and clamping of those tubes breathing can be switched from nasal breathing to breathing through the caudal tracheal cannula, circumventing the upper airway, and the (isolated) upper airway can be connected to the negative pressure device, causing airflow in the inspiratory direction.
At certain points in time, the collapsibility of the upper respiratory tract is tested by having the pig breathe via the caudal cannula and applying negative pressures of −50, −100 and −150 cm water head (cm H2O) to the upper respiratory tract. This causes the upper respiratory tract to collapse, which manifests itself in an interruption of the airflow and a pressure drop in the tube system. This test is conducted prior to the administration of the test substance and at certain intervals after the administration of the test substance. An appropriately effective test substance can prevent this collapse of the respiratory tract in the inspiratory phase.
In this OSA pig model, systemic application of the α2-Adrenoceptor subtype C (alpha-2C) antagonists of formula (I) (1S,12bS)-1-(methoxymethyl)-1-methyl-[…][2,3-a]quinolizine with i.v. bolus injection of 0.3 mg/kg followed by an i.v. infusion of 0.1 mg/kg/h for four hours inhibited upper airway collapsibility at all negative pressures of −50, −100 and −150 cm for more than 6 hours (see Table 1, 2 and 3 and FIG. 1).

[1] = time 0 min (time of administration)

Compound: COC[C@@]1(C)CCCN2CCc3c(oc4ccccc34)[C@@H]21 [(1S,12bS)-1-(methoxymethyl)-1-methyl-1,3,4,6,7,12b-hexahydro-2H-[1]benzofuro[2,3-a]quinolizine]
- duration of inhibition of upper airway collapsibility (all negative pressures of −50, −100 and −150 cm, i.v. bolus 0.3 mg/kg followed by i.v. infusion 0.1 mg/kg/h for four hours): more than 6 hours
- Percent pigs without collaps −50 cm H2O [1]: 0%
- Percent pigs without collaps −100 cm H2O [1]: 0%
- Percent pigs without collaps −150 cm H2O [1]: 0%
- Percent pigs without collaps −50 cm H2O (time 10 min): 100%
- Percent pigs without collaps −100 cm H2O (time 10 min): 100%
- Percent pigs without collaps −150 cm H2O (time 10 min): 100%
- Percent pigs without collaps −50 cm H2O (time 60 min): 100%
- Percent pigs without collaps −100 cm H2O (time 60 min): 100%
- Percent pigs without collaps −150 cm H2O (time 60 min): 100%
- Percent pigs without collaps −50 cm H2O (time 120 min): 100%
- Percent pigs without collaps −100 cm H2O (time 120 min): 100%
- Percent pigs without collaps −150 cm H2O (time 120 min): 100%
- Percent pigs without collaps −50 cm H2O (time 180 min): 100%
- Percent pigs without collaps −100 cm H2O (time 180 min): 100%
- Percent pigs without collaps −150 cm H2O (time 180 min): 100%
- Percent pigs without collaps −50 cm H2O (time 240 min): 100%
- Percent pigs without collaps −100 cm H2O (time 240 min): 100%
- Percent pigs without collaps −150 cm H2O (time 240 min): 100%
- Percent pigs without collaps −50 cm H2O (time 300 min): 100%
- Percent pigs without collaps −100 cm H2O (time 300 min): 100%
- Percent pigs without collaps −150 cm H2O (time 300 min): 100%
